{
  "source": "patent US20090202626A1",
  "about": "“TREATMENT OF BLADDER DISEASES WITH A TLR7 ACTIVATOR” (priority 2008, published 2009)",
  "origin": "cited, not measured here",
  "key": {"[1]": {"system": "orthotopic bladder cancer"}, "[2]": {"system": "FCB bladder tumor"}, "[3]": {"system": "superficial skin cancer", "conditions": "in vivo"}},
  "data": [
    {"smiles": "CC(C)Cn1cnc2c(N)nc3ccccc3c21", "note": "[Imiquimod, imiquimod]", "values": [
      {"measurement": "mice that developed tumors", "setting": "[1]; 100 μg once weekly, placebo 11 of 13 mice (85%)", "value": "3 of 14"},
      {"measurement": "anti-tumor activity", "setting": "[1]; orthotopic bladder cancer mouse model", "value": "potent anti-tumor activity"},
      {"measurement": "effect on FCB bladder tumor", "setting": "[2]; mice", "value": "cured mice"},
      {"measurement": "effect on chemically induced bladder cancer", "setting": "[2]; mouse, in vivo", "value": "inhibited"},
      {"measurement": "efficacy in superficial skin cancer", "setting": "[3]", "value": "demonstrated efficacy"}
    ]}
  ]
}
